From patent publication US11254686B1 (Corvus Pharmaceuticals, Inc., priority 2017, dated 2022)
pIC50: −log10 of the molar value.

Assays:
Assay type in all cases: biochemical
adenosine A2B receptor = adenosine A2B receptor (Homo sapiens (Human), UniProt P29275); assay: Adenosine receptor activity assay (Table 1), A2B activity; settings: for pIC50: read-out: Ave A2B cAMP IC50
adenosine A3 receptor = adenosine A3 receptor (Homo sapiens (Human), UniProt P0DMS8); assay: Adenosine receptor activity assay (Table 1), A3 cAMP
Protocol: (§1) Table 1. Compounds (e.g., Adenosine Receptor modulators) and activity assay results. The legend is as follows: A=<10 nM; B=10-50 nM; C=50-100 nM; D=100-500; and E=>500 nM. The ratio corresponds to the A2A activity to the A2B activity; or A2A/A2B.

adenosine A2A receptor = adenosine A2A receptor (Homo sapiens (Human), UniProt P29274); assay: Adenosine receptor activity assay (Table 1), A2A activity; settings: read-out: Ave A2A cAMP IC50
adenosine A1 receptor = adenosine A1 receptor (Homo sapiens (Human), UniProt P30542); assay: Adenosine receptor activity assay (Table 1), A1 cAMP
Protocol: as §1

[1] = A2A activity to the A2B activity, A2A/A2B
[2] = A2A activity to A2B activity (A2A/A2B)

Chain of adenosine A3 receptor (P0DMS8 whole entry): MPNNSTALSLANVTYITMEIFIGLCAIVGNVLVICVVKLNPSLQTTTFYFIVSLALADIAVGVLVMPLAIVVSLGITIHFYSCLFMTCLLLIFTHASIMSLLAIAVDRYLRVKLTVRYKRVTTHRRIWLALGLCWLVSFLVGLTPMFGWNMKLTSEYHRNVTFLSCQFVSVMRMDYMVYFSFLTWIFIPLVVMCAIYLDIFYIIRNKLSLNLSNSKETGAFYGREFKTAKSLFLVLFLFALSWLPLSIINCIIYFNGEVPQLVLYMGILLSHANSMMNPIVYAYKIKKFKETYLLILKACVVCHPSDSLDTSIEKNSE
Chain of adenosine A1 receptor (P30542 whole entry): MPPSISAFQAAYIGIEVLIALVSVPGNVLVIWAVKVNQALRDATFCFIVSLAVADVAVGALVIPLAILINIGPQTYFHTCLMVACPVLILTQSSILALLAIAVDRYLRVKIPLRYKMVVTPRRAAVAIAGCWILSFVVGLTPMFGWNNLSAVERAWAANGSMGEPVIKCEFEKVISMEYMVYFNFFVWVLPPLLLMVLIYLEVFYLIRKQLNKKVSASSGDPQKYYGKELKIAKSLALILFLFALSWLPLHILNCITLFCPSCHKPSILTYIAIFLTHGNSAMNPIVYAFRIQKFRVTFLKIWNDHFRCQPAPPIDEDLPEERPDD
Chain of adenosine A2B receptor (P29275 whole entry): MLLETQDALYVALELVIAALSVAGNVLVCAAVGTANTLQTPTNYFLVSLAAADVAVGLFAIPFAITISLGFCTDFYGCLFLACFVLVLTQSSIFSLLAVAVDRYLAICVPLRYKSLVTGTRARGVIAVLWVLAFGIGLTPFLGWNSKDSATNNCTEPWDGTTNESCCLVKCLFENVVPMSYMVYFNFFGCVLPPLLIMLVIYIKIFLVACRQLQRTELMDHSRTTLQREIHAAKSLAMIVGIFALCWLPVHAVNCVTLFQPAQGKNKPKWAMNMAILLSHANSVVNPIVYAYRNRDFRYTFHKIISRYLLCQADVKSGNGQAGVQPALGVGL
Chain of adenosine A2A receptor (P29274 whole entry): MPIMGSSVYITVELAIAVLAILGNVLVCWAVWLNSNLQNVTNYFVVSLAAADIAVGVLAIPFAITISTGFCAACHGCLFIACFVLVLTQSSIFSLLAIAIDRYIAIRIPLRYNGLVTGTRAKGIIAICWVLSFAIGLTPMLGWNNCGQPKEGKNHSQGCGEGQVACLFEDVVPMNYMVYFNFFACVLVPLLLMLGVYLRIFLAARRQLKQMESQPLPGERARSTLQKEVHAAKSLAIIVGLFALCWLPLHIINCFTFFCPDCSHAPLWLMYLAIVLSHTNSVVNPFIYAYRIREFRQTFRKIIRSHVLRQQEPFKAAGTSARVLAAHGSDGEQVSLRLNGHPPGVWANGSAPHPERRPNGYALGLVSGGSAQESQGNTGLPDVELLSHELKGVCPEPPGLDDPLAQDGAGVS

| Structure (SMILES) | Ratio (adenosine A2B receptor; [1]) | pIC50 (adenosine A2B receptor) | pIC50 (adenosine A3 receptor) | pIC50 (adenosine A2A receptor) | pIC50 (adenosine A1 receptor) | Ratio (adenosine A2B receptor; [2]) |
| --- | --- | --- | --- | --- | --- | --- |
| CC(=O)N[C@@H]1CCN(C(=O)c2nc(N[C@@H](C)c3cncc(F)c3)nc3cc(C)sc23)C1 [Example Z532, N—((R)-1-(2-(((S)-1-(5-Fluoropyridin-3-yl)ethyl)amino)-6-methylthieno[3,2-d]pyrimidine-4-carbonyl)pyrrolidin-3-yl)acetamide] | 149.69 | 7.30 to 8.00 | < 6.30 | < 6.30 | < 6.30 | – |
| Cc1cc2nc(N[C@@H](C)c3cncc(F)c3)nc(C(=O)N3CC(CS(C)(=O)=O)C3)c2s1 [Example Z575, (S)-(2-((1-(5-Fluoropyridin-3-yl)ethyl)amino)-6-methylthieno[3,2-d]pyrimidin-4-yl)(3-((methylsulfonyl)methyl)azetidin-1-yl)methanone] | 75.64 | > 8.00 | < 6.30 | < 6.30 | < 6.30 | – |
| Cc1cc2nc(N[C@@H](C)c3cncc(F)c3)nc(C(=O)N3CC[C@@H](CN)C3)c2s1 [Example Z597, ((S)-3-(Aminomethyl)pyrrolidin-1-yl)(2-(((S)-1-(5-fluoropyridin-3-yl)ethyl)amino)-6-methylthieno[3,2-d]pyrimidin-4-yl)methanone] | 99.33 | 7.30 to 8.00 | > 8.00 | < 6.30 | > 8.00 | – |
| Cc1cc2nc(N[C@@H](C)c3ccccn3)nc(C(=O)N3CC(CN)C3)c2s1 [Example Z479, (S)-(3-(Aminomethyl)azetidin-1-yl)(6-methyl-2-((1-(pyridin-2-yl)ethyl)amino)thieno[3,2-d]pyrimidin-4-yl)methanone] | 96.36 | 7.30 to 8.00 | < 6.30 | < 6.30 | < 6.30 | – |
| Cc1cc2nc(N[C@@H](C)c3cncc(F)c3)nc(C(=O)N3CC(NC(=O)C(C)(C)C)C3)c2s1 [Example Z513, (S)—N-(1-(2-((1-(5-Fluoropyridin-3-yl)ethyl)amino)-6-methylthieno[3,2-d]pyrimidine-4-carbonyl)azetidin-3-yl)pivalamide] | 0.18 | 7.30 to 8.00 | 7.30 to 8.00 | > 8.00 | 6.30 to 7.00 | – |
| CNC1CN(C(=O)c2nc(N[C@@H](C)c3cncc(F)c3)nc3cc(C)sc23)C1 [Example Z418, (S)-(2-((1-(5-Fluoropyridin-3-yl)ethyl)amino)-6-methylthieno[3,2-d]pyrimidin-4-yl)(3-(methylamino)azetidin-1-yl)methanone] | 207.31 | 7.30 to 8.00 | < 6.30 | < 6.30 | < 6.30 | – |
| C[C@H](Nc1nc(C(=O)N2CC(CNS(C)(=O)=O)C2)c2sccc2n1)c1cncc(F)c1 [Example Z531, (S)—N-((1-(2-((1-(5-Fluoropyridin-3-yl)ethyl)amino)thieno[3,2-d]pyrimidine-4-carbonyl)azetidin-3-yl)methyl)methanesulfonamide] | 19.43 | 7.30 to 8.00 | < 6.30 | 6.30 to 7.00 | < 6.30 | – |
| Cc1cc2nc(N[C@@H](C)c3ccccn3)nc(C(=O)NCc3ccccn3)c2s1 [Example Z461, (S)-6-Methyl-2-((1-(pyridin-2-yl)ethyl)amino)-N-(pyridin-2-ylmethyl)thieno[3,2-d]pyrimidine-4-carboxamide] | 3.15 | 7.30 to 8.00 | 7.00 to 7.30 | 7.30 to 8.00 | < 6.30 | – |
| COC[C@@H]1CCN(C(=O)c2nc(N[C@@H](C)c3ccccn3)nc3cc(C)sc23)C1 [Example Z467, ((R)-3-(Methoxymethyl)pyrrolidin-1-yl)(6-methyl-2-(((S)-1-(pyridin-2-yl)ethyl)amino)thieno[3,2-d]pyrimidin-4-yl)methanone] | 4.90 | 7.30 to 8.00 | 7.00 to 7.30 | 6.30 to 7.00 | < 6.30 | – |
| Cc1cc2nc(N[C@@H](C)c3cncc(F)c3)nc(C(=O)N3CCN(C(=O)NC(C)C)C3)c2s1 [Example Z593, (S)-3-(2-((1-(5-Fluoropyridin-3-yl)ethyl)amino)-6-methylthieno[3,2-d]pyrimidine-4-carbonyl)-N-isopropylimidazolidine-1-carboxamide] | 3.25 | 7.30 to 8.00 | < 6.30 | 7.00 to 7.30 | < 6.30 | – |
| Cc1csc2c(C(=O)N3CC[C@H](O)C3)nc(N[C@@H](C)c3cncc(F)c3)nc12 [Example Z416, (2-(((S)-1-(5-Fluoropyridin-3-yl)ethyl)amino)-7-methylthieno[3,2-d]pyrimidin-4-yl)((S)-3-hydroxypyrrolidin-1-yl)methanone] | 52.64 | > 8.00 | < 6.30 | 6.30 to 7.00 | < 6.30 | – |
| Cc1cc2nc(N[C@@H](C)c3cncc(F)c3)nc(C(=O)N3CC(NC(=O)C4CC4)C3)c2s1 [Example Z522, (S)—N-(1-(2-((1-(5-Fluoropyridin-3-yl)ethyl)amino)-6-methylthieno[3,2-d]pyrimidine-4-carbonyl)azetidin-3-yl)cyclopropanecarboxamide] | 1.58 | > 8.00 | 6.30 to 7.00 | 7.30 to 8.00 | < 6.30 | – |
| CC(=O)Nc1ccc(CCNC(=O)c2nc(N[C@@H](C)c3cccnc3)nc3cc(C)sc23)cc1 [Example Z497, (S)—N-(4-Acetamidophenethyl)-6-methyl-2-((1-(pyridin-3-yl)ethyl)amino)thieno[3,2-d]pyrimidine-4-carboxamide] | – | 7.30 to 8.00 | 7.00 to 7.30 | – | – | – |
| C[C@H](Nc1nc(C(=O)N2CCOCC2)c2sccc2n1)c1cccnc1 [Example Z11, (S)-Morpholino(2-((1-(pyridin-3-yl)ethyl)amino)thieno[3,2-d]pyrimidin-4-yl)methanone] | – | < 6.30 | – | < 6.30 | – | 4.88 |
| C[C@H](Nc1nc(C(=O)N2CC3(COC3)C2)c2sccc2n1)c1cccnc1 [Example Z14, (S)-(2-((1-(Pyridin-3-yl)ethyl)amino)thieno[3,2-d]pyrimidin-4-yl)(2-oxa-6-azaspiro[3.3]heptan-6-yl)methanone] | – | 6.30 to 7.00 | – | 6.30 to 7.00 | – | 1.35 |
| CC(=O)N[C@H]1CCN(C(=O)c2nc(N[C@@H](C)c3cccnc3)nc3ccsc23)C1 [Example Z322, N—((S)-1-(2-(((S)-1-(Pyridin-3-yl)ethyl)amino)thieno[3,2-d]pyrimidine-4-carbonyl)pyrrolidin-3-yl)acetamide] | – | 6.30 to 7.00 | – | < 6.30 | – | 6.33 |
| C[C@H](Nc1nc(C(=O)NCc2nccn2C)c2sccc2n1)c1ccccn1 [Example Z290, (S)—N-((1-Methyl-1H-imidazol-2-yl)methyl)-2-((1-(pyridin-2-yl)ethyl)amino)thieno[3,2-d]pyrimidine-4-carboxamide] | – | < 6.30 | – | < 6.30 | – | 1.63 |
| C[C@H](Nc1nc(C(=O)N2CC[C@@H](NC(=O)OC(C)(C)C)C2)c2sccc2n1)c1ccccn1 [Example Z246, tert-Butyl ((R)-1-(2-(((S)-1-(pyridin-2-yl)ethyl)amino)thieno[3,2-d]pyrimidine-4-carbonyl)pyrrolidin-3-yl)carbamate] | – | 7.30 to 8.00 | – | 6.30 to 7.00 | – | – |
| C[C@H](Nc1nc(C(=O)N2CCN(C(=O)OCC(C)(C)C)C2)c2sccc2n1)c1cncc(F)c1 [Example Z566, Neopentyl (S)-3-(2-((1-(5-fluoropyridin-3-yl)ethyl)amino)thieno[3,2-d]pyrimidine-4-carbonyl)imidazolidine-1-carboxylate] | 3.10 | < 6.30 | – | < 6.30 | – | – |
| C[C@H](Nc1nc(C(=O)NCCc2ccc(S(C)(=O)=O)cc2)c2sccc2n1)c1cncc(F)c1 [Example Z455, (S)-2-((1-(5-Fluoropyridin-3-yl)ethyl)amino)-N-(4-(methylsulfonyl)phenethyl)thieno[3,2-d]pyrimidine-4-carboxamide] | 3.91 | 6.30 to 7.00 | – | < 6.30 | – | – |
| C[C@H](Nc1nc(C(=O)NCCNC(=O)C(C)(C)C)c2sccc2n1)c1cncc(F)c1 [Example Z537, (S)-2-((1-(5-Fluoropyridin-3-yl)ethyl)amino)-N-(2-pivalamidoethyl)thieno[3,2-d]pyrimidine-4-carboxamide] | 0.87 | 6.30 to 7.00 | – | 6.30 to 7.00 | – | – |
| C[C@H](Nc1nc(C(=O)N2CC[C@H](O)C2)c2sc(N)cc2n1)c1cccnc1 [Example Z196, (6-Amino-2-(((S)-1-(pyridin-3-yl)ethyl)amino)thieno[3,2-d]pyrimidin-4-yl)((S)-3-hydroxypyrrolidin-1-yl)methanone] | – | 7.30 to 8.00 | – | < 6.30 | – | 102.27 |
| C[C@H](Nc1nc(C(=O)NCCc2cccc(C#N)c2)c2sccc2n1)c1cncc(F)c1 [Example Z445, (S)—N-(3-Cyanophenethyl)-2-((1-(5-fluoropyridin-3-yl)ethyl)amino)thieno[3,2-d]pyrimidine-4-carboxamide] | 9.62 | 7.00 to 7.30 | – | < 6.30 | – | – |
| C[C@H](Nc1nc(C(=O)N2CC[C@@H](NC(=O)OC(C)(C)C)C2)c2sccc2n1)c1cccnc1 [Example Z313, tert-Butyl ((R)-1-(2-(((S)-1-(pyridin-3-yl)ethyl)amino)thieno[3,2-d]pyrimidine-4-carbonyl)pyrrolidin-3-yl)carbamate] | – | < 6.30 | – | 6.30 to 7.00 | – | 0.29 |
